Measurements reported in US20230142274A1 (SIMCERE PHARMACEUTICAL CO., LTD., priority 2020, published 2023).

Tested on: Daudi cells
Assay: Inhibition of human Daudi lymphoma cell proliferation (Cell-Titer Glo)
Type: cell-based
Details: 3 days incubation, read-out: Anti-Proliferative Activity Against Daudi cells IC50
Description: Introduction of the experimental principle: After the RAD51 inhibitor to be tested was co-incubated with cancer cells for a period of time, the influence of the test compound on cell proliferation was measured by a method for counting cell proliferation based on the quantitative measurement of intracellular ATP content.
Materials and Cells: Daudi cells were purchased from ATCC; fetal bovine serum, 1640 medium and penicillin-streptomycin were purchased from Gibco Inc. (U.S.), 96-well plates were purchased from Corning Inc. (U.S.), and Cell-Titer Glo reagent was purchased from Promega Corporation (U.S.).
Cell culture: Daudi cells were cultured in 1640 culture medium containing 10% fetal bovine serum and 1% penicillin-streptomycin at 37° C. in an atmosphere containing 5% CO2. Cells in logarithmic growth phase could be used for experiments.
Assay of cell proliferation and viability: Cell-Titer Glo reagent was used to measure the inhibitory activities of the compounds on the proliferation of Daudi cell strain. The concentration of cells was adjusted, and the cells were seeded in a 96-well plate and cultured at 37° C. in an atmosphere containing 5% CO2 for 24 hours. The powder of the compound was dissolved in 100% DMSO to form a 10 mM solution. 10 μl of the solution of the compound was aspirated and transferred into a 96-well compound plate containing 20 μl of DMSO solution for 3-fold dilution and was then formulated into 10 serial dilutions. Thereafter, 2 μl of the solution of the compound was aspirated from the corresponding well and added correspondingly into a 96-well intermediate compound dilution plate containing 78 μl of complete culture medium in each well. The resultant was mixed well, and the plate was centrifuged at 1000 rpm for 1 minute. Finally, 10 μl of the solution of the compound was aspirated from the corresponding well of the 96-well intermediate compound dilution plate, and transferred into the corresponding well of the cell culture plate containing 90 μl of complete culture medium. The final concentration of DMSO was 0.25%. After the addition of the compound, the cells were continued to be incubated for 3 days at 37° C. in an atmosphere containing 5% CO2. Cell-Titer Glo reagent was added to measure cell viability.
% Compound inhibition was calculated and IC50 of the compound was filled;
% Compound inhibition=1−100%×(Signal−Bottom)/(Top−Bottom)

First: COc1ccc(-c2ccc(-c3cnc([C@H]4CC[C@H](NC(=O)OC(C)C)CC4)s3)c([S@](=N)(=O)C3CC3)c2)cn1 (stereo in doubt) [Example 94-1, isopropyl trans-((4-(5-(2-((R)-cyclopropanesulfonimidoyl))-4-(6-methoxypyridin-3-yl)phenyl)thiazol-2-yl)cyclohexyl)carbamate]
Second: CC(C)OC(=O)Nc1ccc(-c2cnc(N3CC4C(C3)C4NC(=O)OC(C)C)s2)c(S(=O)(=O)NC(C)(C)C)c1 (stereo not drawn) [Example 10, isopropyl exo-N-[3-(tert-butylsulfamoyl)-4-[2-[6-(isopropoxycarbonylamino)-3-azabicyclo[3.1.0]hex-3-yl]thiazol-5-yl]phenyl]carbamate]
The IC50 of the first is 160-fold lower: 60 nM for the first, 9720 nM for the second.

Same assay, conditions: Homo sapiens, 72 h, 3 days incubation, read-out: Anti-Proliferative Activity Against Daudi cells IC50

First: CC(C)OC(=O)Nc1ccc(-c2cnc(N3CCC4(CC3)CN(C(=O)OC(C)C)C4)s2)c(S(=O)(=O)NC(C)(C)C)c1 [Example 8, isopropyl 7-(5-(2-(N-(tert-butyl)sulfamoyl)-4-((isopropoxycarbonyl)amino)phenyl)thiazol-2-yl)-2,7-diazaspiro[3.5]nonane-2-carboxylate]
Second: CC(C)OC(=O)Nc1ccc(-c2cnc(N3CCCC(NC(=O)OC(C)C)CC3)s2)c(S(=O)(=O)NC(C)(C)C)c1 (centres unmarked) [Example 11, isopropyl N-[3-(tert-butylsulfamoyl)-4-[2-[4-(isopropoxycarbonylamino)azepan-1-yl]thiazol-5-yl]phenyl]carbamate]
The IC50 of the first is 1.6-fold higher: 3950 nM for the first, 2540 nM for the second. The second is the more potent here.

`CN=S(=O)(c1cc(NC(=O)OC(C)C)ccc1-c1cnc(C2CCC(NC(=O)OC(C)C)CC2)s1)C(C)C` (stereo not drawn) [Example 20, isopropyl trans-N-[4-[2-[4-(isopropoxycarbonylamino)cyclohexyl]thiazol-5-yl]-3-(isopropyl-N-methyl-sulfonimidoyl)phenyl]carbamate] and `CC(C)OC(=O)Nc1ccc(-c2cnc([C@H]3CC[C@H](NC(=O)OC(C)C)CC3)s2)c(S(=O)(=O)CC(C)(C)C)c1` [Example 24, isopropyl trans-N-[3-(2,2-dimethylpropylsulfonyl)-4-[2-[4-(isopropoxycarbonylamino)cyclohexyl]thiazol-5-yl]phenyl]carbamate] are within 1.5-fold of each other in IC50: 2750 nM for the first, 2270 nM for the second.

Going from `CCP(=O)(CC)c1cc(NC(=O)OC(C)C)ccc1-c1cnc([C@H]2CC[C@H](NC(=O)OC(C)C)CC2)s1` [Example 23, isopropyl trans-N-[3-diethylphosphoryl-4-[2-[4-(isopropoxycarbonylamino)cyclohexyl]thiazol-5-yl]phenyl]carbamate] to `CC(C)OC(=O)Nc1ccc(-c2cnc(C3CCC(NC(=O)OC(C)C)CC3)s2)c(S(C)(=O)=NC2CC2)c1` (stereo not drawn) [Example 43, isopropyl trans-N-[3-(N-cyclopropyl-S-methyl-sulfonimidoyl)-4-[2-[4-(isopropoxycarbonylamino)cyclohexyl]thiazol-5-yl]phenyl]carbamate], the IC50 falls from 3930 nM to 1580 nM (2.5-fold). The second is the more potent here.

`CC(C)OC(=O)Nc1ccc(-c2cnc([C@H]3CC[C@H](NC(=O)OC(C)C)CC3)s2)c(P2(=O)CCCC2)c1` [Example 27, isopropyl trans-N-[4-[2-[4-(isopropoxycarbonylamino)cyclohexyl]thiazol-5-yl]-3-(1-oxophospholan-1-yl)phenyl]carbamate] and `CC(C)OC(=O)Nc1ccc(-c2nnc([C@H]3CC[C@H](NC(=O)OC(C)C)CC3)s2)c(S(=N)(=O)C(C)C)c1` (stereo partly drawn) [Example 41, isopropyl trans-N-[4-[5-[4-(isopropoxycarbonylamino)cyclohexyl]-1,3,4-thiadiazol-2-yl]-3-(isopropylsulfonimidoyl)phenyl]carbamate] are within 1.5-fold of each other in IC50: 680 nM for the first, 900 nM for the second.

Going from `CC(C)OC(=O)N[C@H]1CC[C@H](c2ncc(-c3ccc(Nc4ccon4)cc3S(=O)(=O)NC(C)(C)C)s2)CC1` [Example 30, isopropyl trans-(4-(5-(2-(N-(tert-butyl)sulfamoyl)-4-(isoxazol-3-ylamino)phenyl)thiazol-2-yl)cyclohexyl)carbamate] to `CC(C)OC(=O)N[C@H]1CC[C@H](c2ncc(-c3ccc(Nc4cccnn4)cc3S(=O)(=O)C(C)C)s2)CC1` [Example 44, isopropyl trans-N-[4-[5-[2-isopropylsulfonyl-4-(pyridazin-3-ylamino)phenyl]thiazol-2-yl]cyclohexyl]carbamate], the IC50 falls from 2650 nM to 680 nM (3.9-fold).

Going from `CC(C)OC(=O)N[C@H]1CC[C@H](c2ncc(-c3ccc(Nc4ccc[nH]c4=O)cc3S(=O)(=O)C(C)C)s2)CC1` [Example 35, isopropyl trans-N-[4-[5-[2-isopropylsulfonyl-4-[(2-oxo-1H-pyridin-3-yl)amino]phenyl]thiazol-2-yl]cyclohexyl]carbamate] to `Cc1cc(Nc2ccc(-c3cnc([C@H]4CC[C@H](NC(=O)OC(C)C)CC4)s3)c(S(=O)(=O)C(C)C)c2)sn1` [Example 38], the IC50 falls from 4290 nM to 150 nM (29-fold).

Compared with `CC(C)OC(=O)N[C@H]1CC[C@H](c2ncc(-c3ccc(Nc4cc(C(F)(F)F)[nH]n4)cc3S(=O)(=O)C(C)C)s2)CC1` [Example 46], `Cc1cc(Nc2ccc(-c3cnc([C@H]4CC[C@H](NC(=O)OC(C)C)CC4)s3)c(S(=O)(=O)C(F)(F)F)c2)n[nH]1` [Example 51, isopropyl trans-N-[4-[5-[4-[(5-methyl-1H-pyrazol-3-yl)amino]-2-(trifluoromethylsulfonyl)phenyl]thiazol-2-yl]cyclohexyl]carbamate] is 6-fold lower in IC50: 390 nM for the first, 65 nM for the second. The second is the more potent here.

`Cc1cc(Nc2ccc(-c3cnc(C4CCC(NC(=O)OC(C)C)CC4)s3)c([S+]([O-])C3CC3)c2)n[nH]1` (stereo not drawn) [Example 52, isopropyl trans-N-[4-[5-[2-cyclopropylsulfinyl]-4-[(5-methyl-1H-pyrazol-3-yl)amino]phenyl]thiazol-2-yl]cyclohexyl]carbamate] and `CC(C)OC(=O)N[C@H]1CC[C@H](c2ncc(-c3ccc(Nc4cc(C5CC5)[nH]n4)cc3S(=N)(=O)C3CC3)s2)CC1` (stereo partly drawn) [Example 63, isopropyl trans-N-[4-[5-[4-[(5-cyclopropyl-1H-pyrazol-3-yl)amino]-2-(cyclopropylsulfonimidoyl)phenyl]thiazol-2-yl]cyclohexyl]carbamate] are within 1.5-fold of each other in IC50: 80 nM for the first, 70 nM for the second.

First: CC(C)OC(=O)NC12CCC(c3ncc(-c4ccc(Nc5cn(C)nn5)cc4S(=O)(=O)C4CC4)s3)(CC1)CC2 [Example 58]
Second: Cc1cc(Nc2ccc(-c3cnc(C45CCC(NC(=O)OC(C)C)(CC4)CC5)s3)c(S(=O)(=O)C3CC3)c2)n[nH]1 [Example 60]
The IC50 of the first is 6.8-fold higher: 27 nM for the first, 4 nM for the second.

`CC(C)OC(=O)Nc1ccc(-c2ncc(-c3ccc(Nc4cn(C)nn4)cc3S(=O)(=O)C3CC3)s2)cc1` [Example 59] and `Cc1cc(Nc2ccc(-c3cnc(-c4ccc(NC(=O)OC(C)C)cc4)s3)c(S(=O)(=O)C3CC3)c2)n[nH]1` [Example 61] are within 1.5-fold of each other in IC50: 125 nM for the first, 104 nM for the second.

Compared with `CC(C)OC(=O)NC1CCC(c2ncc(-c3ccc(N4CCCO4)cc3S(=N)(=O)C3CC3)s2)CC1` (stereo not drawn) [Example 64, isopropyl trans-(4-(5-(2-(cyclopropanesulfonimidoyl)-4-(isoxazolidin-2-yl)phenyl)thiazol-2-yl)cyclohexyl)carbamate], `CC(C)OC(=O)N[C@H]1CC[C@H](c2ncc(-c3ccc(N4CCCO4)cc3S(=O)(=O)C3CC3)s2)CC1` [Example 73, isopropyl trans-N-[4-[5-(2-cyclopropylsulfonyl-4-isoxazolidin-2-yl-phenyl)thiazol-2-yl]cyclohexyl]carbamate] is 26-fold lower in IC50: 5200 nM for the first, 200 nM for the second. The second is the more potent here.

`CC(C)OC(=O)N[C@H]1CC[C@H](c2ncc(-c3ccc(Nc4ccccn4)cc3S(=O)(=O)C3CC3)s2)CC1` [Example 66, isopropyl trans-N-[4-[5-[2-cyclopropylsulfonyl-4-(2-pyridylamino)phenyl]thiazol-2-yl]cyclohexyl]carbamate] and `CC(C)OC(=O)NC1CCC(c2ncc(-c3ccc(Nc4ccc(F)cn4)cc3S(=O)(=O)C3CC3)s2)CC1` (stereo not drawn) [Example 75, isopropyl trans-N-[4-[5-[2-cyclopropylsulfonyl]-4-[(5-fluoro-2-pyridyl)amino]phenyl]thiazol-2-yl]cyclohexyl]carbamate] are within 1.5-fold of each other in IC50: 18 nM for the first, 22 nM for the second.

Going from `CC(=O)Nc1ccc(-c2cnc([C@H]3CC[C@H](NC(=O)OC(C)C)CC3)s2)c(S(=N)(=O)C2CC2)c1` (stereo partly drawn) [Example 67, isopropyl trans-(4-(5-(4-acetylamino-2-(cyclopropanesulfonimidoyl)phenyl]thiazol-2-yl)cyclohexyl)carbamate] to `CC(C)OC(=O)N[C@H]1CC[C@H](c2ncc(-c3ccc(NC(=O)C4CC4)cc3S(=O)(=O)C3CC3)s2)CC1` [Example 74, isopropyl trans-(4-(5-(4-(cyclopropanecarboxamido)-2-(cyclopropylsulfonyl)phenyl)thiazol-2-yl)cyclohexyl)carbamate], the IC50 falls from 2600 nM to 90 nM (29-fold).

In the case of `CC(C)OC(=O)N[C@H]1CC[C@H](c2ncc(-c3ccc(Nc4cn[nH]c4)cc3S(=O)(=O)C3CC3)s2)CC1` [Example 71], the IC50 is reported as 16 nM.
